The values below are quoted from earlier work in patent US9446004B2, “Transdermal nicotine salt delivery system” (ALZA Corporation, priority 2005, dated 2016).

For orientation: pKa means the negative logarithm of the acid dissociation constant.

Read-outs that look alike come from different tables or passages of the source.

As for `CN1CCCC1c1cccnc1` (centres unmarked) [Nicotine], the pKa result by setting is: (first pKa) “about 8”; (second pKa) roughly 3.
